Experimental data published in article PMC11310081, “Deep-learning-enabled antibiotic discovery through molecular de-extinction” (Nature Biomedical Engineering, 2024).
“Also recorded” adds a separate entry of the source. Peptide text beside a SMILES is read from it.

Legend:
A. baumannii ATCC 19606 [1] = test: Skin abscess infection mouse model; type: in vivo, CD-1 mice; conditions: for bacterial count, skin abscess (Panel 6b): CD-1 mice
Description: A. baumannii ATCC 19606 cells were grown in LB medium to an OD600 = 0.5. Cells were washed twice with sterile phosphate-buffered saline (PBS) (pH 7.4, 13,000 r.p.m. for 2 min) and resuspended to a final concentration of 10^6 (A. baumannii cells) colony-forming units per millilitre (c.f.u. ml^−1). Six-week-old female CD-1 mice from Charles River (stock number 18679700-022) were anaesthetized with isoflurane, and their backs were sterilized and shaved. A superficial linear skin abrasion was made with a needle to damage the stratum corneum and upper layer of the epidermis. An aliquot of 20 μl containing the bacterial load resuspended in PBS was inoculated over the scratched area. Two hours after the infection, peptides diluted in water at their MIC value were administered to the infected area, and the untreated mice were inoculated with the same volume of deionized water. Mice were euthanized, and the area of scarified skin was excised 2 days and 4 days post infection, homogenized using a bead beater for 20 min (25 Hz) and then serially diluted tenfold for quantification of colony-forming units. This quantitative method was used as it has been established to accurately reflect the number of bacteria present in a given infected area. MacConkey agar plates were used as A. baumannii colonies appear purple in this medium and can easily be distinguished from other strains. The experiments were performed with six mice per group. All experiments were performed blindly, and no animal subjects were excluded from the analysis. The skin abscess infection mouse model was approved by the University Laboratory Animal Resources from the University of Pennsylvania (protocol 806763). Statistical significance was determined using one-way analysis of variance (ANOVA) followed by Dunnett’s test in log10-transformed data to mitigate the effect of outliers; P values are presented for each group, with all groups being compared to the untreated control group.

[2] = system: 11 clinically relevant bacterial pathogens; type: cell-based; conditions: Supplementary Dataset 2; against the 11 pathogens tested
How it was run: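 Antimicrobial activity is measured by broth microdilution against log-phase bacteria (OD600 0.3–0.5). Peptide range: 1 to 64 μmol l^−1.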

A. baumannii ATCC 19606 [3] = test: Neutropenic thigh infection mouse model; type: in vivo, CD-1 mice; conditions: for bacterial count, thigh infection (Panel 6d): neutropenic CD-1 mice
Description: Six-week-old female CD-1 mice from Charles River (stock number 18679700-022) were rendered neutropenic by two doses of cyclophosphamide (150 mg kg^−1) applied intraperitoneally with an interval of 72 h. One day after the last dose of cyclophosphamide, the mice were injected intramuscularly in their right thigh with a bacterial load of 10^6 c.f.u. ml^−1 of A. baumannii ATCC 19606 cells. The bacteria had been grown in LB broth, washed twice with PBS (pH 7.4), and resuspended to the desired concentration. Two hours after bacterial injection, peptides resuspended in water were administered intraperitoneally, and the untreated mice were inoculated with the same volume of deionized water. Before each injection, mice were anaesthetized with isoflurane and monitored for respiratory rate and pedal reflexes. Next, we monitored the establishment of the infection and euthanized the mice. The infected area was excised 2 days and 4 days post infection, homogenized using a bead beater for 20 min (25 Hz), and then serially diluted tenfold for quantification of colony-forming units in MacConkey agar plates. The experiments were performed with six mice per group. All experiments were performed blindly, and no animal subjects were excluded from the analysis. The thigh infection mouse model was approved by the University Laboratory Animal Resources from the University of Pennsylvania (protocol 807055). Statistical significance was determined using one-way ANOVA followed by Dunnett’s test in log10-transformed data to mitigate the effect of outliers; P values are presented for each group, with all groups being compared to the untreated control group.

[4] = A. baumannii ATCC 19606, day 2, replicate 1
[5] = A. baumannii ATCC 19606, day 2, replicate 2
[6] = A. baumannii ATCC 19606, day 2, replicate 3
[7] = A. baumannii ATCC 19606, day 2, replicate 4
[8] = A. baumannii ATCC 19606, day 2, replicate 5
[9] = A. baumannii ATCC 19606, day 2, replicate 6
[10] = A. baumannii ATCC 19606, day 4, replicate 1
[11] = A. baumannii ATCC 19606, day 4, replicate 2
[12] = A. baumannii ATCC 19606, day 4, replicate 3
[13] = A. baumannii ATCC 19606, day 4, replicate 4
[14] = A. baumannii ATCC 19606, day 4, replicate 5
[15] = A. baumannii ATCC 19606, day 4, replicate 6

## CC(C)C[C@H](NC(=O)CNC(=O)[C@H](CCCNC(=N)N)NC(=O)[C@H](CCCCN)NC(=O)[C@H](CCCNC(=N)N)NC(=O)[C@@H](N)CCCCN)C(=O)N[C@@H](CCCCN)C(=O)N[C@@H](CC(C)C)C(=O)N[C@@H](C)C(=O)N[C@H](C(=O)N[C@@H](C)C(=O)N[C@@H](CC(C)C)C(=O)N[C@@H](CO)C(=O)N[C@@H](CC(C)C)C(=O)N[C@@H](CC(N)=O)C(=O)N[C@@H](CC(N)=O)C(=O)N[C@@H](CCCCN)C(=O)N[C@@H](Cc1ccccc1)C(=O)O)[C@@H](C)O [Mylodonin-2] (H-KRKRGLKLATALSLNNKF-OH; N-terminus and C-terminus assumed)
A. baumannii ATCC 19606 [1]; [4]
  bacterial count, skin abscess (Panel 6b): 200000
A. baumannii ATCC 19606 [1]; [5]
  bacterial count, skin abscess (Panel 6b): 200000
A. baumannii ATCC 19606 [1]; [6]
  bacterial count, skin abscess (Panel 6b): 600000
A. baumannii ATCC 19606 [1]; [7]
  bacterial count, skin abscess (Panel 6b): 200000
A. baumannii ATCC 19606 [1]; [8]
  bacterial count, skin abscess (Panel 6b): 400000
A. baumannii ATCC 19606 [1]; [9]
  bacterial count, skin abscess (Panel 6b): 400000
A. baumannii ATCC 19606 [1]; [10]
  bacterial count, skin abscess (Panel 6b): 2000
A. baumannii ATCC 19606 [1]; [11]
  bacterial count, skin abscess (Panel 6b): 2000
A. baumannii ATCC 19606 [1]; [12]
  bacterial count, skin abscess (Panel 6b): 60000
A. baumannii ATCC 19606 [1]; [13]
  bacterial count, skin abscess (Panel 6b): 80000
A. baumannii ATCC 19606 [1]; [14]
  bacterial count, skin abscess (Panel 6b): 200
A. baumannii ATCC 19606 [1]; [15]
  bacterial count, skin abscess (Panel 6b): 200
A. baumannii ATCC 19606 [1]; single dose at MIC, compared with untreated control and polymyxin B, n = 6
  Anti-infective activity in skin abscess model, in words: comparable to that of the widely used antibiotic polymyxin B; also recorded: inhibited the proliferation of the infection for up to 4 days after treatment; also recorded: cleared the infection in some of the mice
[2]
  Active or Inactive: Active
A. baumannii ATCC 19606 [3]; [4]
  bacterial count, thigh infection (Panel 6d): 1200000
A. baumannii ATCC 19606 [3]; [5]
  bacterial count, thigh infection (Panel 6d): 2400000
A. baumannii ATCC 19606 [3]; [6]
  bacterial count, thigh infection (Panel 6d): 1000000
A. baumannii ATCC 19606 [3]; [7]
  bacterial count, thigh infection (Panel 6d): 1800000
A. baumannii ATCC 19606 [3]; [8]
  bacterial count, thigh infection (Panel 6d): 200000
A. baumannii ATCC 19606 [3]; [9]
  bacterial count, thigh infection (Panel 6d): 400000
A. baumannii ATCC 19606 [3]; [10]
  bacterial count, thigh infection (Panel 6d): 1.2e+007
A. baumannii ATCC 19606 [3]; [11]
  bacterial count, thigh infection (Panel 6d): 1.2e+008
A. baumannii ATCC 19606 [3]; [12]
  bacterial count, thigh infection (Panel 6d): 2.0e+007
A. baumannii ATCC 19606 [3]; [13]
  bacterial count, thigh infection (Panel 6d): 2.0e+007
A. baumannii ATCC 19606 [3]; [14]
  bacterial count, thigh infection (Panel 6d): 4.0e+007
A. baumannii ATCC 19606 [3]; [15]
  bacterial count, thigh infection (Panel 6d): 2.0e+007
A. baumannii ATCC 19606 [3]; neutropenic thigh infection, single intraperitoneal dose, n = 6
  Reduction in bacterial counts, 2 days post treatment: as much as polymyxin B; also recorded: most potent activity, which was comparable to that of the positive control antibiotic, polymyxin B
